Here are results for 12 compounds from US20240139190A1, “NOVEL ANTIPARASITIC COMPOUNDS AND METHODS” (The Board of Regents of The University of Texas System, priority 2019, published 2024).

Data set [1] concerns the target purified L. tarentolae tubulin (Leishmania tarentolae, UniProt A0A640KCM0+A0A640KQN0). Briefly: Chemical cross-linking competition with SW223022 probe. It counts as binding. Conditions: 100-fold excess of competitor.
In data set [2] the test system is L. amazonensis axenic amastigotes. Briefly: alamarBlue viability / concentration-response assay, axenic amastigotes. In kind it is cell-based, Leishmania amazonensis. The method, then:
(§1) Leishmania amazonensis axenic amastigotes (100 μL, 2×10^6 cells/mL) were added to 96-multiwell plates containing 100 μL of amastigote culture medium with an appropriate compound dilution series. 0.1% DMSO (no drug) served as a positive control (100%), and 5 μM amphotericin B served as a negative growth control (0%). Only internal wells were used to minimize edge effects from evaporation. Axenic amastigotes were incubated at 32° C. with a compound/drug for 72 h prior to measurement. Similarly, the cytotoxicity of each compound was determined against RAW 264.7 cells and HepG2 cell lines, following 72 h incubation at 37° C. (promastigotes at 26° C.).
(§2) 10% alamarBlue® (Thermo Fisher Scientific) was used to measure the growth of both parasite and mammalian cells. Conversion from a blue oxidized state to a pink reduced state was assessed visually at 6 hr. The fluorescence signal was measured with a BioTek Synergy H1 plate reader (530 nm excitation, 570 nm emission). For bioluminescence assays using L. amazonensisluc, relative luminescence units (RLU) were measured using Britelite Plus (PerkinElmer, USA). Luminescence produced by this luciferase reaction is proportional to the amount of luciferase-expressing, viable L. amazonensisluc. Following five-minute incubation at room temperature, the luminescence was measured with a BioTek Synergy H1 plate reader.
All experiments were conducted as three technical triplicates on the same plate, with at least three independent biological repeats of each plate performed. For all assays, percent growth was expressed as a proportion of the untreated (positive) control (i.e. 100%) and plotted against drug/compound concentration. The concentration was then log10 transformed and EC50 values were determined using nonlinear regression (sigmoidal dose-response/variable slope equation) in GraphPad Prism v5.0 (GraphPad Software, Inc., San Diego, CA).
To identify antileishmanial compounds, a microplate-based alamarBlue® assay was used to quickly triage the 400 drug-like compounds available in the MMV Pathogen Box collection. […] A three-step process was used to screen the Pathogen Box: 1) identify hits against axenic amastigotes, 2) confirm the inhibitory concentrations of these hits against axenic amastigotes, 3) evaluate hits for potency against intracellular parasites using fluorescence and bioluminescence-based intracellular assays. The MMV Pathogen Box resource was tested at two concentrations (5 μM and 1 μM, 72 h endpoint) on axenic amastigotes.
Hits were defined as compounds that, at a concentration of 1 μM, decreased the relative fluorescence intensity signal to ≤70% of that produced by parasites incubated in vehicle (0.06% DMSO) only (FIG. 9).
In general terms: Resazurin is reduced to fluorescent resorufin, in cell work by metabolically active cells.

The test system of data set [3] is intracellular L. amazonensis amastigotes. Briefly: Intramacrophage bioluminescence assay with luciferase-expressing L. amazonensis. It counts as cell-based, Leishmania amazonensis. The method, then: Intracellular EC50s were estimated with L. amazonensisluc parasites. Briefly, RAW 264.7 cells or BM primary Mϕs were starved overnight, then infected with metacyclic promastigotes at a Multiplicity of Infection (MOI) of 15 and incubated for another 24 h at 37° C. The plates containing infected RAW 264.7 cells/BM primary M4s were washed five times with serum-free DMEM. Serially diluted compounds were added, and plates were incubated at 37° C. for 72 hrs. Bioluminescence signal was measured as described above.
RAW 264.7 cells were used to perform a bioluminescence assay with transgenic luciferase-expressing L. amazonensis (FIG. 1C).

Data set [4] has as its system blood-stage P. falciparum (3D7 strain). Briefly: Malaria SYBR green I fluorescence (MSF) assay. In kind it is cell-based, Plasmodium falciparum. The following applies: 3D7 strain. The method, then: For other parasites, L. donovani, strain MHOM/SD/62/1S-C12D, was grown as previously described. Plasmodium falciparum parasites of the 3D7 strain were cultured in RPMI 1640 medium supplemented with 37.5 mM HEPES, 10 mM D-glucose, 2 mM L-glutamine, 100 μM hypoxanthine, 25 μg/mL gentamicin, 4% (v/v) human serum and 0.25% (v/v) Albumax II, at a 2% haematocrit in an atmosphere of 1% 02, 3% CO2 and 96% N2. Staging and parasitemia of the in vitro culture were assessed by light microscopy of Giemsa-stained thin blood smears.
Compounds were tested against the blood-stage Trypanosoma brucei (48 hr endpoint) and intra-erythrocytic asexual stages Plasmodium falciparum (3D7) using CellTiter-Glo® luminescent and Malaria SYBR green I fluorescence (MSF) assays, respectively. Similar methodology will be used for future experiments.
MMV676477 was tested against several other parasites: the axenic amastigotes of Leishmania donovani and Leishmania tarentolae, blood-stage Plasmodium falciparum, and Trypanosoma brucei. The compound's activity was measured using alamarBlue®, Malaria SYBR green I fluorescence (MSF) and CellTiter-Glo® luminescent assays. […] In addition, MMV676477 has also been recently reported as having potent activity against Neospora caninum, Cryptosporidium parvum, Toxoplasma gondii, and Entamoeba histolytica.

The nature of data set [5]: Cytotoxicity, alamarBlue. In kind it is cell-based. The following applies: mouse, RAW 264.7 macrophage cells, read-out: CC50^72 h cytotoxicity (macrophage / mammalian cells). The method, then: as §1
as §2, with “reader. […]” for “reader.”

In data set [6] the test system is L. amazonensis promastigotes and amastigotes. Briefly: Microscopic analysis of cell division. It counts as cell-based, Leishmania amazonensis. Conditions: 48 h at EC50^72 h. The method, then:
(§3) Promastigotes or amastigotes were treated with the indicated compound concentrations and allowed to adhere to poly-L-lysine coated plates. All cells were fixed with 4% paraformaldehyde and permeabilized/blocked with 0.01% Triton X-100 and 2% BSA in PBS. Promastigotes and amastigotes were incubated with mouse anti-gp46 or anti-p8, respectively at 1:50 or 1:1000 and rat anti-alpha-tubulin antibody at 1:1000. Samples were then probed with A568 anti-mouse and […] secondary antibodies (Molecular Probes). DNA was labeled with Hoescht. Samples were visualized on a Zeiss LSM 880 Inverted confocal Airyscan microscope at 63×; full Z-thicknesses through parasites were obtained. […] For microscopic analysis of mitotic arrest, at least 200 parasites were analyzed per condition per experiment after 48 hrs incubation at compounds' EC50, and the average plus standard error for three experiments was calculated. Representative images were selected from the maximal intensity projections and linearly processed in Adobe Photoshop CS6.
The molecular target of MMV676477 was investigated.

Data set [7] shares this test system. Briefly: Tubulin intensity by confocal immunofluorescence microscopy. In kind it is cell-based, Leishmania amazonensis. Conditions: 24 h at EC50^72 h. Here is the method:
as §3
One reason why MMV676477 might affect parasite cell division is that, like paclitaxel, it might affect microtubule polymerization, either directly or indirectly. The degree to which MMV676477 affected microtubules polymerization in cells was examined. […] Centrifugation of these extracts allowed separation of insoluble polymeric (pellet) and soluble dimeric (supernatant) tubulin. […] The intensity of α-tubulin staining was examined by normalizing it to the intensity of a membrane protein (gp46 for promastigotes in FIG. 4D; p8 for amastigotes in FIG. 4E).

In data set [8] the test system is intracellular L. amazonensis amastigotes. Briefly: Intracellular washout assay (LD50). It counts as cell-based, Leishmania amazonensis. The method, then: Intracellular LD50s were measured. Briefly, RAW 264.7 cells were seeded to 96-multiwell plates at a density of 2×10^5 cells/mL (200 μL) and starved overnight at 37° C. The cells were infected with metacyclic promastigotes at a Multiplicity of Infection (MOI) of 15 and incubated for another 24 h at 37° C. The plates containing infected RAW 264.7 cells/BM primary M #s were washed five times with serum-free DMEM. Serially diluted compounds were added, and plates were incubated at 37° C. for 72 hrs. Wells were washed five times with DMEM, and the RAW 264.7 cells were lysed with 100 μL of 2 mg/mL saponin in DMEM for 5 min at room temperature, and further lysis was stopped with 100% FBS. After centrifugation, 200 μL acidic promastigotes media was replaced, plates were incubated at 26° C. for 96 h. Fluorescence intensity (alamarBlue®) was measured as described above.
All routine in vitro quantification of antileishmanial drug potency is quantification of “cytostatic” potency. […] Therefore, the cytocidal action of MMV676477 was quantified by obtaining an LD50 at 72 h (a Lethal Dose that kills 50% of the bulk population of the parasites relative to untreated control) and compared it to the known cytocidal drug amphotericin. An intracellular washout assay was employed. […] The ratio of LD50:EC50 was calculated for MMV676477 and amphotericin. Lower ratios indicate that the LD50 is similar to the EC50 value, meaning that the estimated EC50 values represent killing of the parasites rather than simple growth inhibition.

Setting [9] is: Leishmania amazonensis, 72 h, axenic amastigotes; read-out: EC50^72 h against L. amazonensis axenic amastigotes.
Where [10] appears, read: Pathogen Box screen, 1 μM, 72 h.

Entries after “also recorded” stand apart in the source; their conditions may differ. Like-named read-outs stand apart in the source and are kept apart here.

On to `CSc1ccccc1C(=O)Oc1cc(C)nc(-n2nc(C)cc2N)n1` [SW10], for which, in data set [1], the “competition with SW223022 probe (fluorescent tubulin band)” value (“competition with SW223022 probe” below) is “No apparent competition”.

For the compound `C#CCOc1ccc(C(=O)c2ccc(C(=O)Nc3cc(C)nn3-c3nc(C)c(CC)c(=O)[nH]3)cc2)cc1` [SW223022, N-(1-(5-Ethyl-4-methyl-6-oxo-1,6-dihydropyrimidin-2-yl)-3-methyl-1H-pyrazol-5-yl)-4-(4-(prop-2-yn-1-yloxy)benzoyl)benzamide], the concentration giving a half-maximal response (EC50) (in general, the concentration giving half of the maximal effect) in data set [2] (72 h, axenic amastigotes; read-out: EC50^72 h against L. amazonensis axenic amastigotes) is 156 nM; in data set [2] (setting [9]), 160 nM.

In the case of `CCc1c(C)nc(-n2nc(C)cc2NC(C)=O)[nH]c1=O` [SW223023, N-(1-(5-Ethyl-4-methyl-6-oxo-1,6-dihydropyrimidin-2-yl)-3-methyl-1H-pyrazol-5-yl) acetamide], the “competition with SW223022 probe” value in data set [1] is “No apparent competition”.

For the compound `CCc1c(C)nc(-n2nc(C)cc2NC(=O)c2ccc(F)c(Cl)c2)[nH]c1=O` [SW223041, 3-Chloro-N-(1-(5-ethyl-4-methyl-6-oxo-1,6-dihydropyrimidin-2-yl)-3-methyl-1H-pyrazol-5-yl)-4-fluorobenzamide], in data set [2] (setting [9]), the EC50 came out at 20 nM. In data set [2] (fold vs MMV676477), the “improvement of potency against L. amazonensis compared to MMV676477” value was “four to five-fold improved potency; also recorded: about four-fold improved activity”. Besides, the “potency against L. amazonensis intracellular amastigotes relative to MMV676477” value in data set [3] is 3-4 fold. Besides, the “potency against blood-stage P. falciparum relative to MMV676477” value in data set [4] is recorded as 3-4 fold. For the same compound, the CC50 at 72 h in data set [5] was 2400 nM. The “competition with SW223022 probe” value in data set [1] was “almost completely absent”.

Regarding `CCc1c(C)nc(-n2nc(C)cc2N)[nH]c1=O` [SW223075, 2-(5-amino-3-methyl-1H-pyrazol-1-yl)-5-ethyl-6-methylpyrimidin-4(3H)-one], in data set [2] (setting [9]), the EC50 was found to be 290 nM. Further, the “percentage of L. amazonensis undergoing cell division” value in data set [6] is given as “no effect on cell division”. The “tubulin intensity over control (DMSO-treated)” value in data set [7] was “did not increase tubulin intensity”.

In the case of `CCc1c(C)nc(-n2nc(C)cc2NC(=O)Nc2ccc(OC)cc2)[nH]c1=O` [SW223102, 1-(1-(5-Ethyl-4-methyl-6-oxo-1,6-dihydropyrimidin-2-yl)-3-methyl-1H-pyrazol-5-yl)-3-(4-methoxyphenyl)urea], the concentration giving a half-maximal response (EC50) in data set [2] (setting [9]) is 2400 nM. The “competition with SW223022 probe” value in data set [1] was “less-pronounced dimming”.

In the case of `C[C@@H]1[C@H](O)[C@@H](C)/C=C/C=C/C=C/C=C/C=C/C=C/C=C/[C@H](O[C@@H]2O[C@H](C)[C@@H](O)[C@H](N)[C@@H]2O)C[C@@H]2O[C@](O)(C[C@@H](O)C[C@@H](O)[C@H](O)CC[C@@H](O)C[C@@H](O)CC(=O)O[C@H]1C)C[C@H](O)[C@H]2C(=O)O` [amphotericin B], the EC50 in data set [2] (Leishmania amazonensis; 72 h, axenic amastigotes; read-out: EC50^72 h against L. amazonensis axenic amastigotes) was found to be 53 nM; in data set [3] (Leishmania amazonensis, RAW264.7, 72 h, read-out: EC50^72 h against intracellular L. amazonensis amastigotes), 77 nM. Moreover, the LD50/EC50 ratio in data set [8] (intracellular amastigotes) was found to be 1. In data set [8] (intracellular washout, 72 h), the “LD50 72 h” value stood at 82 nM.

On to `CC(=O)OC[C@H]1O[C@@H]([S-])[C@H](OC(C)=O)[C@@H](OC(C)=O)[C@@H]1OC(C)=O.CCP(CC)CC.[Au+]` [auranofin], for which the “relative fluorescence intensity signal vs vehicle (hit definition)” value (“relative fluorescence intensity signal” for short) in data set [2] (setting [10]) is “hits”.

With `CC(C)(C)[C@H]1CC[C@H](CC2=C(O)C(=O)c3ccccc3C2=O)CC1` [buparvaquone], the “relative fluorescence intensity signal” value in data set [2] (setting [10]) is reported as “hits”.

As for `C[C@]1(COc2ccc(N3CCC(Oc4ccc(OC(F)(F)F)cc4)CC3)cc2)Cn2cc([N+](=O)[O-])nc2O1` [delamanid], the “relative fluorescence intensity signal” value in data set [2] (setting [10]) is on record as “hits”.

`CCCCCCCCCCCCCCCCOP(=O)([O-])OCC[N+](C)(C)C` [miltefosine]: the “percentage of L. amazonensis undergoing cell division” value in data set [6] was “did not affect L. amazonensis cell division”. Besides, the “tubulin intensity over control (DMSO-treated)” value in data set [7] is given as “did not increase tubulin intensity”.

Consider `CC(=O)Oc1ccccc1C(=O)Nc1ncc([N+](=O)[O-])s1` [nitazoxanide], for which the “relative fluorescence intensity signal” value in data set [2] (setting [10]) was “hits”.
